Data: PMC11802874, “The hypolipidemic effect of MI-883, the combined CAR agonist/ PXR antagonist, in diet-induced hypercholesterolemia model” (Nature Communications, 2025)
“And” between values parts separate entries of the source, which are not always exact repeats. Equal values may be shown once.

Tests used:
[1] = Metabolic stability in human liver S9 fraction
Protocol: Shimadzu HPLC system including vacuum degasser, gradient pumps, reverse phase HPLC column, column oven, and autosampler with an API 4000 QTRAP mass spectrometer (Applied Biosystems/MDS Sciex (AB Sciex) with Turbo V ion source and TurboIonspray interface were used. The reference compound midazolam, which is metabolized both by phase I and phase II enzymes, was used. The elimination constant (kel), half-life (t1/2), and intrinsic clearance (Clint) were determined[19] (Table S1).
Supplementary Figure 1. […] Test compounds (1 μM, final DMSO concentration 1%) were incubated at 37 °C with shaking at 100 rpm. Four time points over 120 minutes have been analyzed. The reactions were stopped by adding 420 μL of acetonitrile-water mixture (90:10). Supernatants were analyzed by the HPLC system coupled with a tandem mass spectrometer. The percentage (in % of initial concertation) of the test compounds remaining after incubation in plasma and their half-lives (t1/2) were calculated. […] The stability of the compound was tested in human liver S9 fraction. Cofactors were used such as UDPGA (for glucuronidation), PAPS (for sulfation), and reduced glutathione (for conjugation of GSH). Compounds were tested in triplicate with or without NADPH. Propantheline and midazolam were used as unstable control compounds in the experiments. Data represent the means±S.D. from at least three independent samples.

PXR/MED1 = molecular target: T1, PXR/MED1 (Homo sapiens, UniProt O75469); test: Mammalian two-hybrid PXR/coactivator MED1 recruitment, HepG2; assay type: cell-based; parameters: key: firefly/Metridia luciferase activity ratio (normalized)
T1 construct: PXR-LBD (residues 108–434); expressed in transfected cells; host or cells: HepG2
T1 sequence (O75469 108-434): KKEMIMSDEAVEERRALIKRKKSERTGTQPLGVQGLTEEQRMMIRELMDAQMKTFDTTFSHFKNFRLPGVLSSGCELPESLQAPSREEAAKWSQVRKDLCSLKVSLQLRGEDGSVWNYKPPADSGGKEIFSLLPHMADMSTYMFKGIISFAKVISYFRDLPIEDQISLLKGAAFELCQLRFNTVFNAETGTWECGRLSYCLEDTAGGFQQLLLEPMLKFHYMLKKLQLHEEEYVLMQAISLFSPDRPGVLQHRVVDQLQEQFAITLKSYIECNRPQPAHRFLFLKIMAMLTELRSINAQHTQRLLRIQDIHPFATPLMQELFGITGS
Protocol: The GAL4-dependent pGL4-G5, harboring a pentamer of GAL4 binding sites in front of the E1b promoter was described before.
Transient batch transfection of HepG2 cells was done as described above. […] All transfections included 0.01 µg pMetLuc2control per well for normalization of firefly luciferase reporter activities. After overnight incubation with the transfection mixtures, cells were treated with chemicals in a volume of 100 µl of cell culture medium. […] Firefly luciferase activity was measured in 10 µl of cell lysates, and Metridia luciferase activity was analyzed in 10 µl of medium supernatant, both as described before. Results were normalized by dividing firefly luciferase activity by Metridia luciferase activity measured from the same well. Measurements of samples were repeated several times (n ≥ 3).

LXRβ = LXRβ (Homo sapiens, UniProt P55055); test: Luciferase reporter gene assay LXRβ, HepG2
Chain of LXRβ (P55055 222-460 limits assumed): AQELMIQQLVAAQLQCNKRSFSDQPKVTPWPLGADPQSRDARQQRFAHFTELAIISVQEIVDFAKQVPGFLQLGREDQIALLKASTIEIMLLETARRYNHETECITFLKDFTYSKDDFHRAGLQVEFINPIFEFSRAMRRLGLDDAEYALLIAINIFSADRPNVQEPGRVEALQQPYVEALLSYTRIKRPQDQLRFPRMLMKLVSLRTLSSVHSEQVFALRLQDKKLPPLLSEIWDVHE
From the text: Gal4-LBD constructs of tested nuclear receptors have been used together with pGL4.31[luc2P/GAL4UAS/Hygro] luciferase reporter construct and pRL-TK Renilla expression vector (both from Promega, Hercules, USA) in HepG2 cells transfected with Lipofectamine 2000 or 3000 reagents. For GRα and FXR receptors, full-length expression vectors have been used with pGRE-luc or pFXRE-luc luciferase constructs. For the aryl hydrocarbon receptor (AhR), p1A1-luc construct was used with only pRL-TK vector for transfection normalization. A dual reporter assay (Promega, Hercules, USA) was used to analyze both firefly and Renilla luciferase activities.
Gal4-LBD constructs of tested nuclear receptors have been used together with pGL5-luc luciferase reporter construct and pRL-TK Renilla expression vector in HepG2 cells transfected with Lipofectamine 2000 or 3000 reagents. For GRα and FXR receptors, full-length expression vectors have been used with pGRE-luc or pFXRE-luc luciferase constructs. For the aryl hydrocarbon receptor (AhR), p1A1-luc construct was used with only pRL-TK vector for transfection normalization. […] Bars represent means±S.D. (n=3).

ERα = ERα (Homo sapiens, UniProt P03372); test: Luciferase reporter gene assay ERα, HepG2; assay type: cell-based
Chain of ERα (P03372 311-547 limits assumed, species assumed): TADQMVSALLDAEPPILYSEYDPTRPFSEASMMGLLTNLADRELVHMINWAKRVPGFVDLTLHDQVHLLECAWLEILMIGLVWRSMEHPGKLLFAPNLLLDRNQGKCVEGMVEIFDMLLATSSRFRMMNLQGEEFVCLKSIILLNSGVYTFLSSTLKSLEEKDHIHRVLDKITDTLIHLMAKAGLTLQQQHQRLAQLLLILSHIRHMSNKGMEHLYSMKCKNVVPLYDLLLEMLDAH
From the text: (see Supplementary Chapter 7).
Thank you for the insightful question and comment. We have corrected the sentence to read:
Thank you for the idea. Yes, we conducted luciferase reporter assays in antagonistic "mode" for several nuclear receptors using their prototype ligands in the revised manuscript (Figure R7).
This information is included in the Supplementary Information.
Treatment with 5 and 10 µM
(1 picture or pasted object on this page, not shown here) […]
nM dexamethasone, 10 µM GW3965 (LXRα agonist), and 10 µM estradiol. Data are presented as a […]

[2] = system: humanized PXR-CAR-CYP3A4/3A7 mice, plasma; test: Plasma metabolomics (HFD study); assay type: in vivo, mouse
Protocol: Metabolomic plasma analysis was performed using plasma samples from male PXR/CAR/CYP3A4 mice (n=5) treated with MI-883 in the proof-of-concept study involving a high-fat diet^23. Plasma samples were prepared on ice, and each sample was separated into two 20 μl aliquots. All prepared aliquots were then frozen and stored at −80°C until analysis. Plasma aliquots were thawed, and protein precipitation was performed by adding 60 μl of a mixture containing 40% methanol, 40% acetonitrile, and 20% water. Samples were mixed, incubated for 12 hours at -20°C, and then centrifuged at 20,000 g for 10 minutes. The supernatants were collected for analysis by LC-MS/MS. A pooled quality control sample was prepared by mixing 10 μl from each sample. LC separation was performed on an iHILIC® Classic column (iHILIC®-(P) Classic, HILIC Column, PEEK,100x2.1mm, 5µm, 200Å, Hilicon, Umeå, Sweden) using a water/acetonitrile gradient with 10 mM ammonium formate, starting from 95% to 42% over 15 minutes in both polarities. LC-MS/MS analysis was conducted on the ID-X Orbitrap Tribrid Mass Spectrometer (ThermoFisher Scientific).

[3] = system: 3D primary human hepatocyte spheroids; test: ATP production and spheroid size in 3D PHH spheroids; assay type: cell-based
Protocol: Briefly, PHHs were cultivated for 6 days to generate compact spheroids by spontaneous self-aggregation and then half of PHH medium was exchanged for FBS-free PHH medium. 3D PHHs were treated with MI-883 (5 μM) commenced from day 8 within a time range of 8–120 h (time points were 8, 12, 24, 48, 72, and 120 h). Conditioned FBS-free PHH medium was changed every 2–3 days of the treatment. […] Data are presented as the mean ± SD of fold change expression gained from 3D spheroids of three different donors. ATP assay has been performed as described.

[4] = FigS18c, plasma, individual animals

**Q.** For `NC(=O)c1cc(Cn2cc(-c3c(-c4ccc(Cl)cc4)nc4cc(F)ccn34)nn2)ccc1Cl` [MI-883, 2-chloro-5-((4-(2-(4-chlorophenyl)-7-fluoroimidazo[1,2-a]pyridin-3-yl)-1H-1,2,3-triazol-1-yl)methyl)benzamide], which half-life at 2 µM ([1]; human, liver S9 fraction) is on record?
**A.** 2.85 h

**Q.** And the microsomal CLint at 2 µM ([1]; human, liver S9 fraction)?
**A.** 2 µL/min/mg

**Q.** What about the “Stability in S9 fraction (human liver), % remaining” value ([1]; time 0 (min), 2 μM) of the same compound?
**A.** 100

**Q.** What about the “Stability in S9 fraction (human liver), % remaining” value ([1]; time 20) of the same compound?
**A.** 100

**Q.** And the “Stability in S9 fraction (human liver), % remaining” value ([1]; time 40)?
**A.** 92

**Q.** And the “Stability in S9 fraction (human liver), % remaining” value ([1]; time 60)?
**A.** 96

**Q.** And the “Stability in S9 fraction (human liver), % remaining” value ([1]; time 120)?
**A.** 84

**Q.** What about the “PXR/DRIP2025 (MED1) two-hybrid activity, replicates” value (PXR/MED1; MI-883 30 μM) of the same compound?
**A.** 0.42 and 0.46 and 0.18 and 0.3 and 0.2

**Q.** What about the “PXR/DRIP2025 (MED1) two-hybrid activity, replicates” value (PXR/MED1; single agent: RIF (10 µM), MI-883 10 μM) of the same compound?
**A.** 0.33 and 0.2 and 0.19 and 0.27 and 0.23

**Q.** What about the “NRs assays: LXRbeta (relative to ctrl, replicates)” value (LXRβ) of the same compound?
**A.** 0.51 and 0.81 and 0.55

**Q.** What about the “NRs assays: ERalpha (relative to ctrl, replicates)” value (ERα) of the same compound?
**A.** 0.77 and 1.06 and 0.79

**Q.** And the “inhibition of estrogen receptor alpha (ERα), antagonistic mode” value (ERα; 10 μM MI-883)?
**A.** weak inhibitor

**Q.** And the “Isoleucine (plasma metabolomic data)” value [2, 4]?
**A.** 93.5 and 119.8 and 74.2 and 56.6 and 106.4 and 73.7

**Q.** And the “Leucine (plasma metabolomic data)” value [2, 4]?
**A.** 53.5 and 73.3 and 34.8 and 24.3 and 49.7 and 38.6

**Q.** And the “Valine (plasma metabolomic data)” value [2, 4]?
**A.** 2968.9 and 1967.5 and 1520.8 and 1183.5 and 1942.7 and 1962.8

**Q.** And the “plasma 2-hydroxy-3-oxopropanoate, change” value ([2]; HFD study, male mice)?
**A.** 1.595 fold

**Q.** What about the “plasma 5-aminopentanoic acid (5-aminovalerate), change” value ([2]; HFD study, male mice) of the same compound?
**A.** 1.375 fold

**Q.** And the “plasma isoleucine, change” value ([2]; HFD study, male mice)?
**A.** 1.638 fold

**Q.** What about the plasma small-molecule metabolome ([2]; HFD study, male mice) of the same compound?
**A.** no significant effect

**Q.** What about the “spheroid size or ATP production in 3D PHHs” value ([3]; 5 μM, 72 h) of the same compound?
**A.** did not see any decrease

**Q.** And the “Fig. 7c readout relative to control (control 100)” value ([3]; 5 uM, three replicates, control = 100)?
**A.** 92.8 and 153.7 and 124.1
